Source: PubChem BioAssay AID2060906 (Molecular Pharmacology Branch, DTP, NCI, 2025)

System: 485176-168-R4-J1-PDC complex spheroid growth
Assay: Anticancer human tumor 485176-168-R4-J1-PDC patient-derived pancreatic adenocarcinoma cell line growth inhibition [RAS]
Details: for viability, T/C: stronger effect = lower value
In short: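 Agents were tested in combination matrices in half-log decrements from a top concentration at or near clinical Cmax (10 microM if undetermined). Targets were multi-cell spheroids of tumour lines plus HUVEC and MSC stromal cells.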

[1] = curve of first compound, second compound 0.0316 µM
[2] = curve of first compound, second compound 0.1 µM
[3] = curve of first compound, second compound 0.316 µM
[4] = curve of first compound, second compound 1 µM
[5] = second compound 0.0316 µM, first compound 0.0316 µM
[6] = second compound 0.0316 µM, first compound 0.1 µM
[7] = second compound 0.0316 µM, first compound 0.316 µM
[8] = second compound 0.0316 µM, first compound 1 µM
[9] = second compound 0.0316 µM, first compound 3.16 µM
[10] = second compound 0.0316 µM, first compound 10 µM
[11] = second compound 0.1 µM, first compound 0.0316 µM
[12] = second compound 0.1 µM, first compound 0.1 µM
[13] = second compound 0.1 µM, first compound 0.316 µM
[14] = second compound 0.1 µM, first compound 1 µM
[15] = second compound 0.1 µM, first compound 3.16 µM
[16] = second compound 0.1 µM, first compound 10 µM
[17] = second compound 0.316 µM, first compound 0.0316 µM
[18] = second compound 0.316 µM, first compound 0.1 µM
[19] = second compound 0.316 µM, first compound 0.316 µM
[20] = second compound 0.316 µM, first compound 1 µM
[21] = second compound 0.316 µM, first compound 3.16 µM
[22] = second compound 0.316 µM, first compound 10 µM
[23] = second compound 1 µM, first compound 0.0316 µM
[24] = second compound 1 µM, first compound 0.1 µM
[25] = second compound 1 µM, first compound 0.316 µM
[26] = second compound 1 µM, first compound 1 µM
[27] = second compound 1 µM, first compound 3.16 µM
[28] = second compound 1 µM, first compound 10 µM
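Further: spheroids exposed to compounds for seven days before readout.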
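Wherever viability, T/C is given: luminescence viability expressed relative to DMSO vehicle wells set as 100%.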

CC(=O)OC12COC1CC(O)C1(C)C(=O)C(O)C3=C(C)C(OC(=O)C(O)C(NC(=O)OC(C)(C)C)c4ccccc4)CC(O)(C(OC(=O)c4ccccc4)C21)C3(C)C (stereo not drawn) + C#Cc1c(F)ccc2cc(O)cc(-c3ncc4c(N5CC6CCC(C5)N6)nc(OCC56CCCN5CC(F)C6)nc4c3F)c12
IC50 [1]: < 31.6 nM | IC50 [2]: < 31.6 nM | IC50 [3]: < 31.6 nM | IC50 [4]: < 31.6 nM | IC50 (curve of first compound, second compound 3.16 µM): < 31.6 nM | IC50 (curve of first compound, second compound 10 µM): < 31.6 nM | viability, T/C [5]: 18.5% | viability, T/C [6]: 15.3% | viability, T/C [7]: 14.6% | viability, T/C [8]: 13.5% | viability, T/C [9]: 18.5% | viability, T/C [10]: 21.8% | viability, T/C [11]: 19.1% | viability, T/C [12]: 14.5% | viability, T/C [13]: 13.7% | viability, T/C [14]: 14.9% | viability, T/C [15]: 19.8% | viability, T/C [16]: 21.2% | viability, T/C [17]: 15.1% | viability, T/C [18]: 12.4% | viability, T/C [19]: 13.4% | viability, T/C [20]: 11.6% | viability, T/C [21]: 16.6% | viability, T/C [22]: 19.4% | viability, T/C [23]: 17% | viability, T/C [24]: 15.8% | viability, T/C [25]: 12.8% | viability, T/C [26]: 11.8% | viability, T/C [27]: 19.2% | viability, T/C [28]: 20.6% | viability, T/C (second compound 3.16 µM, first compound 0.0316 µM): 20.6% | viability, T/C (second compound 3.16 µM, first compound 0.1 µM): 16.5% | viability, T/C (second compound 3.16 µM, first compound 0.316 µM): 15.2% | viability, T/C (second compound 3.16 µM, first compound 1 µM): 13.8% | viability, T/C (second compound 3.16 µM, first compound 3.16 µM): 16.5% | viability, T/C (second compound 3.16 µM, first compound 10 µM): 20.6% | viability, T/C (second compound 10 µM, first compound 0.0316 µM): 16.5% | viability, T/C (second compound 10 µM, first compound 0.1 µM): 12.2% | viability, T/C (second compound 10 µM, first compound 0.316 µM): 13.3% | viability, T/C (second compound 10 µM, first compound 1 µM): 11.7% | viability, T/C (second compound 10 µM, first compound 3.16 µM): 16% | viability, T/C (second compound 10 µM, first compound 10 µM): 19%

CC(=O)OC12COC1CC(O)C1(C)C(=O)C(O)C3=C(C)C(OC(=O)C(O)C(NC(=O)OC(C)(C)C)c4ccccc4)CC(O)(C(OC(=O)c4ccccc4)C21)C3(C)C (stereo not drawn) + C=CC(=O)N1CCN(c2nc(OCC3CCCN3C)nc3c(F)c(-c4nc(N)cc(C)c4C(F)(F)F)c(Cl)cc23)C(C)C1
IC50 (curve of first compound, second compound 0.00316 µM): < 31.6 nM | IC50 (curve of first compound, second compound 0.01 µM): < 31.6 nM | IC50 [1]: < 31.6 nM | IC50 [2]: < 31.6 nM | IC50 [3]: < 31.6 nM | IC50 [4]: < 31.6 nM | viability, T/C (second compound 0.00316 µM, first compound 0.0316 µM): 13.2% | viability, T/C (second compound 0.00316 µM, first compound 0.1 µM): 9.9% | viability, T/C (second compound 0.00316 µM, first compound 0.316 µM): 13.1% | viability, T/C (second compound 0.00316 µM, first compound 1 µM): 11.3% | viability, T/C (second compound 0.00316 µM, first compound 3.16 µM): 15.8% | viability, T/C (second compound 0.00316 µM, first compound 10 µM): 18.9% | viability, T/C (second compound 0.01 µM, first compound 0.0316 µM): 17% | viability, T/C (second compound 0.01 µM, first compound 0.1 µM): 12.3% | viability, T/C (second compound 0.01 µM, first compound 0.316 µM): 11.4% | viability, T/C (second compound 0.01 µM, first compound 1 µM): 11.7% | viability, T/C (second compound 0.01 µM, first compound 3.16 µM): 13.7% | viability, T/C (second compound 0.01 µM, first compound 10 µM): 16.3% | viability, T/C [5]: 15.2% | viability, T/C [6]: 13.6% | viability, T/C [7]: 12% | viability, T/C [8]: 15.1% | viability, T/C [9]: 13.3% | viability, T/C [10]: 17.9% | viability, T/C [11]: 13.3% | viability, T/C [12]: 13.8% | viability, T/C [13]: 10.5% | viability, T/C [14]: 11.3% | viability, T/C [15]: 16.7% | viability, T/C [16]: 17.9% | viability, T/C [17]: 18.4% | viability, T/C [18]: 13.3% | viability, T/C [19]: 11.8% | viability, T/C [20]: 9.75% | viability, T/C [21]: 15.5% | viability, T/C [22]: 19.4% | viability, T/C [23]: 12.6% | viability, T/C [24]: 9.69% | viability, T/C [25]: 9.77% | viability, T/C [26]: 9.87% | viability, T/C [27]: 15.3% | viability, T/C [28]: 18.2%

C=CC(=O)N1CCN(c2nc(OCC3CCCN3C)nc3c(F)c(-c4nc(N)cc(C)c4C(F)(F)F)c(Cl)cc23)C(C)C1 (stereo not drawn)
viability, T/C (compound 0.1 µM): 98.5% [middle of 12 runs] | viability, T/C (compound 1 µM): 102% [middle of 12 runs] | IC50 (compound alone, run of 06/10/2024): > 1000 nM | IC50 (curve of compound): > 1000 nM
